Assays:
Assay type in all cases: biochemical
FAAH [1] = target: T1, FAAH (Mus musculus, UniProt O08914); experiment: In vitro competitive activity-based protein profiling, mouse FAAH; conditions: 1 μM, read-out: FAAH % inh. 1 μM (mouse)
T1 construct: mouse brain membrane fraction or cell lysates for mouse assays; from tissue
T1 sequence (O08914 1-579): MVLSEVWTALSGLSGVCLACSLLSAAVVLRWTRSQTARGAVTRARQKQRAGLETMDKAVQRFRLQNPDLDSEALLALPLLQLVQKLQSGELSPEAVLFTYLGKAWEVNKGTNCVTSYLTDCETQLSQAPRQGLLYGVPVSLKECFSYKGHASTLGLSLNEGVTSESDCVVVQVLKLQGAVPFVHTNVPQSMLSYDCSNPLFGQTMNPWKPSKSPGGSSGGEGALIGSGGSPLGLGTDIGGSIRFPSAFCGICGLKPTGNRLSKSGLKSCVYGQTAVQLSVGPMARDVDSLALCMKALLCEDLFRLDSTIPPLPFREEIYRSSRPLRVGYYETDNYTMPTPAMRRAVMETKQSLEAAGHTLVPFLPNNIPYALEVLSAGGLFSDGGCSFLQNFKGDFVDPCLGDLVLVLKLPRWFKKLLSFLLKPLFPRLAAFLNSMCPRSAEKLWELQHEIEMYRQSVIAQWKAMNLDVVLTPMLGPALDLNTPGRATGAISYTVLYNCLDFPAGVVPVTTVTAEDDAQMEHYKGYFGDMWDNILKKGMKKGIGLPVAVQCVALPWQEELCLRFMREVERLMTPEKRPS
How it was run: (§1)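 Activity measured as fluorescent gel-band intensity of MAGL and FAAH after SDS-PAGE. Before labelling with FP-Rh or HT-01 (30 min, 37 °C), proteomes at 1.0 mg/mL (mouse brain membrane or lysates; human prefrontal cortex or cell membranes) were exposed to varying inhibitor concentrations for 30 min at 37 °C.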

MAGL [2] = target: T2, MAGL (Mus musculus, UniProt O35678); experiment: In vitro competitive activity-based protein profiling, mouse MAGL; conditions: 1 μM, read-out: MAGL % inh. 1 μM (mouse)
T2 construct: mouse brain membrane fraction or cell lysates for mouse assays; from tissue
T2 sequence (O35678 1-303): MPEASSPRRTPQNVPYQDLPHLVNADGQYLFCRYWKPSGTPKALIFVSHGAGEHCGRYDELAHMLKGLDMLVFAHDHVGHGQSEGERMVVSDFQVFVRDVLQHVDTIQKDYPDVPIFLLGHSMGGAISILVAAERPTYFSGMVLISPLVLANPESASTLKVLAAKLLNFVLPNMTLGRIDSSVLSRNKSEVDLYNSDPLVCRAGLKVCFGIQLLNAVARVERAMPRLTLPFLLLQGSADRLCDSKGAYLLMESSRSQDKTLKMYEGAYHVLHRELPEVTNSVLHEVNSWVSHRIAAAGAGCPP
How it was run: as §1

FAAH [3] = target: T3, FAAH (Homo sapiens, UniProt O00519); experiment: In vitro competitive activity-based protein profiling, human FAAH; conditions: for inhibition at 1 µM: read-out: FAAH % inh. 1 μM (human); for inhibition at 10 µM: read-out: FAAH % inh. 10 μM (human)
T3 construct: human prefrontal cortex or cell membrane fractions for human assays; from tissue
T3 sequence (O00519 1-579): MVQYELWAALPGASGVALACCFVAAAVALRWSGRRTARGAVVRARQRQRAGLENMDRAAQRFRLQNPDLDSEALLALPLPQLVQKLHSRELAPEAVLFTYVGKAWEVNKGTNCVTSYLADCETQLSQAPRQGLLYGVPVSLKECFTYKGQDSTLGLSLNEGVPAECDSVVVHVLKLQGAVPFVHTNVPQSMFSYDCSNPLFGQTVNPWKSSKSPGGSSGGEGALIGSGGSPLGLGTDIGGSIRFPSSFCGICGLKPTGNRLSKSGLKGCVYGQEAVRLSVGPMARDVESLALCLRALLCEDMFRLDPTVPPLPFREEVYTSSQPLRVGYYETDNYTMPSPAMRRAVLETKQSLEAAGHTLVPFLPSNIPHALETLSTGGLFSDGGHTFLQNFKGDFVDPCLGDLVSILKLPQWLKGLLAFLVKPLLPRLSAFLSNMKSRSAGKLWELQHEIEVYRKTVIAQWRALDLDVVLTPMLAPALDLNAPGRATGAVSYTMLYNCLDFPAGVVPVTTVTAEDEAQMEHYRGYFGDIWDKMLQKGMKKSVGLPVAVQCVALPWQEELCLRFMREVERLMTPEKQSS
Experimental: (§2) In Vitro Competitive Activity-Based Protein Profiling.
(§3) Proteomes (mouse brain membrane fraction or cell lysates for mouse assays; human prefrontal cortex or cell membrane fractions for human assays) (50 μL, 1.0 mg/mL total protein concentration) were preincubated with varying concentrations of inhibitors at 37° C. After 30 min, FP-Rh or HT-01 (1.0 μL, 50 μM in DMSO) was added and the mixture was incubated for another 30 min at 37° C. Reactions were quenched with SDS loading buffer (15 μL—4×) and run on SDS-PAGE. Following gel imaging, serine hydrolase activity was determined by measuring fluorescent intensity of gel bands corresponding to MAGL and FAAH using ImageJ 1.43u software.

MAGL [4] = target: T4, MAGL (Homo sapiens, UniProt Q99685); experiment: In vitro competitive activity-based protein profiling, human MAGL; conditions: for inhibition at 1 µM: read-out: MAGL % inh. 1 μM (human); for inhibition at 10 µM: read-out: MAGL % inh. 10 μM (human)
T4 construct: human prefrontal cortex or cell membrane fractions for human assays; from tissue
T4 sequence (Q99685 1-303): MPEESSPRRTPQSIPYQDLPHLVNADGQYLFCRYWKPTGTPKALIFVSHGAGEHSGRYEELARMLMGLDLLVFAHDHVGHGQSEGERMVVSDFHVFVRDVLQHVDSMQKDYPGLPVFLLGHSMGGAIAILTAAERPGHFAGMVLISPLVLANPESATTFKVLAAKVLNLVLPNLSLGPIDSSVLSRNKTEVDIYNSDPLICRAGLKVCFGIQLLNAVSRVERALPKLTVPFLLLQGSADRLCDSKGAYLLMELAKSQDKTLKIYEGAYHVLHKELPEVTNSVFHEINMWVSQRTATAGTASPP
Experimental: as §2, §3

| SMILES | inhibition at 1 µM (FAAH [1]) [%] | inhibition at 1 µM (MAGL [2]) [%] | inhibition at 1 µM (FAAH [3]) [%] | inhibition at 10 µM (FAAH [3]) [%] | inhibition at 1 µM (MAGL [4]) [%] | inhibition at 10 µM (MAGL [4]) [%] |
| --- | --- | --- | --- | --- | --- | --- |
| O=C(O)c1cnn(C(=O)N2CC3CN(Cc4cc(Cl)ccc4C(F)(F)F)CC3C2)c1 (stereo not shown) [Example 196, 1-(5-(5-chloro-2-(trifluoromethyl)benzyl)octahydropyrrolo[3,4-c]pyrrole-2-carbonyl)-1H-pyrazole-4-carboxylic acid] | ≥ 75 | 0 to 25 | ≥ 75 | ≥ 75 | 0 to 25 | ≥ 75 |
| O=C(O)c1cnn(C(=O)N2CC3CN(Cc4ccc(N5CCCC5)cc4C(F)(F)F)CC3C2)c1 (stereo not shown) [Example 197, 1-(5-(4-(pyrrolidin-1-yl)-2-(trifluoromethyl)benzyl)octahydropyrrolo[3,4-c]pyrrole-2-carbonyl)-1H-pyrazole-4-carboxylic acid] | ≥ 75 | 0 to 25 | ≥ 75 | ≥ 75 | 0 to 25 | ≥ 75 |
| O=C(O)c1cnn(C(=O)N2CC3CN(Cc4cc(N5CCCC5)cc(C(F)(F)F)c4)CC3C2)c1 (stereo not shown) [Example 198, 1-(5-(3-(pyrrolidin-1-yl)-5-(trifluoromethyl)benzyl)octahydropyrrolo[3,4-c]pyrrole-2-carbonyl)-1H-pyrazole-4-carboxylic acid] | ≥ 75 | 0 to 25 | ≥ 75 | 50 to 75 | 0 to 25 | ≥ 75 |
| NC(=O)c1cnn(C(=O)N2CCC3(CCN(Cc4cc(N5CCOCC5)cc(C(F)(F)F)c4)C3)C2)c1 (stereo not shown) [Example 210, 1-(7-(3-morpholino-5-(trifluoromethyl)benzyl)-2,7-diazaspiro[4.4]nonane-2-carbonyl)-1H-pyrazole-4-carboxamide] | ≥ 75 | 0 to 25 | ≥ 75 |  | ≥ 75 |  |
| CN(Cc1ccc(N2CCCC2)cc1C(F)(F)F)[C@@H]1C[C@@H]2CN(C(=O)n3cc(C(N)=O)cn3)C[C@@H]2C1 [Example 220, 1-(cis-5-(methyl(4-(pyrrolidin-1-yl)-2-(trifluoromethyl)benzyl)amino)octahydrocyclopenta[c]pyrrole-2-carbonyl)-1H-pyrazole-4-carboxamide] | 0 to 25 | 0 to 25 | 0 to 25 | ≥ 75 | 0 to 25 | ≥ 75 |

Source: patent US10385057B2, “Pyrazole compounds and methods of making and using same” (Lundbeck La Jolla Research Center, Inc., priority 2015, dated 2019)
